The target in experiment [1] is T1, SIK1 (Homo sapiens, UniProt P57059).
T1 construct: purchased Carna Biosciences 02-131
Kind of experiment: biochemical. Conditions: 33P radioactive SIK kinase assay, AMARA peptide, 10 μM ATP; read-out: SIK1 IC50. The method, boiled down:
(§1)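 Radiometric assay: SIK1, SIK2 or SIK3 phosphorylates AMARA peptide using unlabelled plus [^33P]-γ-ATP, reaction started by ATP addition. Stopped with 150 mM phosphoric acid, filter-harvested and washed; incorporated ^33P counted by scintillation. Controls: 1% DMSO and 10 μM staurosporine final.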

Experiment [2] concerns the target T2, SIK2 (Homo sapiens, UniProt Q9H0K1).
T2 construct: purchased ThermoFisher Scientific PV4792
Kind of experiment: biochemical. Conditions: 33P radioactive SIK kinase assay, AMARA peptide, 10 μM ATP. The essentials:
as §1

Experiment [3] addresses T3, SIK3 (Homo sapiens, UniProt Q9Y2K2).
T3 construct: purchased SignalChem S12-11G-100
Put plainly: biochemical. The method, boiled down: as §1

Experiment [4] relates to LPS-induced TNFα secretion in monocyte-derived macrophages (MdM). Kind of experiment: MdM assay: LPS-triggered TNFα (ELISA). Type of experiment: cell-based, human. The conditions noted are these: Homo sapiens, Macrophage, LPS-triggered TNFα inhibition. The method, boiled down:
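Human CD14+ monocytes isolated from buffy-coat PBMCs by magnetic beads, differentiated to macrophages; on day 10 compound preincubated 1 h at 37 °C, then LPS 200 ng/mL added (0.2% DMSO). Supernatant taken after 20 h; TNFα quantified by sandwich ELISA against standard curve.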

The test system of experiment [5] is LPS triggered IL-10 secretion in monocyte-derived macrophages (MdM). Put plainly: MdM assay: LPS-triggered IL-10 (ELISA). Conditions: maximal fold change vs LPS only, median across assays. It counts as cell-based, human. The method, then:
This assay evaluates illustrative compounds of the invention for their inhibition of LPS-induced TNFα and LPS triggered IL-10 secretion in monocyte-derived macrophages.
PBMCs are isolated from human blood samples (buffycoats). The buffy coat is aseptically transferred into a 50 mL Falcon tube, and diluted 1/2 in PBS. Falcon tubes are filled with 20 mL Lymphoprep™, on top of which 25 mL of the buffy coat is carefully added, tubes are centrifuged for 35 min at 400 g in temperature controlled centrifuge, without brake, at 25° C. PBMCs are aspirated from the white interface layer between sample and Lymphoprep™. PBMCs are washed five times in PBS.
PBMCs are centrifuged at 300×g for 10 min and resuspended at a density of 1.0E07 cells/80 μL Miltenyi buffer (PBS, pH 7.4, 1% FBS, 2 mM EDTA).
Starting from this point of the protocol all steps are performed on ice. 20 μL of CD14+ micro-beads are added per 1.0E07 cells, the tube is mixed and incubated for 15 min in the fridge at 4° C. Cell suspension volume is adjusted to total volume of 100 mL using Miltenyi buffer, mixed gently and subsequently centrifuged for 10 min at 300× g. Supernantant is discarded and cell pellet is resuspended in 12 mL of Miltenyi buffer.
Four LS columns are placed in the MACS Separator (magnet) from Miltenyi Biotec, and are prewet by rinsing with 3 mL of MACS buffer per column. Three mL of cell suspension is added onto the column (max 1*10^8 of labelled cells/column), and columns are subsequently washed 3 times with 3 mL of Miltenyi buffer.
The columns are removed from the magnets, and 5 mL of Miltenyi buffer are added to the column to flush out the CD14+ fraction by pushing the plunger into the column. The flushed fractions are collected in a fresh 50 mL Falcon and volume is adjusted to 30 mL using Miltenyi buffer, cells are centrifuged for 10 min at 300× g. The obtained cell pellet is resuspended in 10 mL RPMI w/o FBS, and cell density is determined using a hematologic analyser (Sysmex XS-500i).
On day 10, MdMs are triggered and compound is added.
A compound dilution plate is made in 100% DMSO by 3-fold dilution of 10 mM stock solution. An intermediate dilution plate (10× final concentration) is made by diluting the compound dilution plate 50-fold in RPMI medium.
Medium is carefully removed from cell plates using multichannel pipette, and replaced by 80 μL fresh medium. 10 μL of the 10× final concentration compound is added to the cells and incubated for 1 hour at 37° C. before addition of trigger. No trigger conditions/trigger conditions are spiked with equal final DMSO concentrations of 0.2% DMSO. 10 μL of 10×LPS (final conc. 200 ng/mL) solution are added to all wells except for the ‘no trigger wells’ where 10 μL medium is added. Supernatant is collected after 2 h (IL-10 determination) and after 20 h (TNFα determination) of LPS triggering.
Plates are washed three times with PBST, where after 100 μL of Strep-HRP conjugate (0.5 μg/mL final concentration diluted in dilution buffer) is added. Plates are incubated in the dark, at 37° C. for 30 min. Plates are washed three times with PBST. […] 100 μL of substrate solution is added to each well and incubated until brilliant blue color develops. The reaction is stopped by adding 50 μL of 1 M H2SO4, after which absorbance is measured at 450 nm on the SpectraMax i3, Molecular Devices.
To quantify these inductions fold changes (FC) compared to ‘LPS only’ are calculated for each concentration tested and the maximal FC is calculated (IL-10 FCmax):
[formula] wherein ABS=Absorbance measured at 450 nm.
The median maximal FC for test compounds across two or more assays is reported (IL-10FCmax median).

pEC50, pIC50: −log10 of the molar value.

In general, pIC50 refers to −log10 of the IC50, conventionally taken in molar units. In general, pEC50 refers to −log10 of the EC50, conventionally taken in molar units.

T1 sequence (P57059 whole entry): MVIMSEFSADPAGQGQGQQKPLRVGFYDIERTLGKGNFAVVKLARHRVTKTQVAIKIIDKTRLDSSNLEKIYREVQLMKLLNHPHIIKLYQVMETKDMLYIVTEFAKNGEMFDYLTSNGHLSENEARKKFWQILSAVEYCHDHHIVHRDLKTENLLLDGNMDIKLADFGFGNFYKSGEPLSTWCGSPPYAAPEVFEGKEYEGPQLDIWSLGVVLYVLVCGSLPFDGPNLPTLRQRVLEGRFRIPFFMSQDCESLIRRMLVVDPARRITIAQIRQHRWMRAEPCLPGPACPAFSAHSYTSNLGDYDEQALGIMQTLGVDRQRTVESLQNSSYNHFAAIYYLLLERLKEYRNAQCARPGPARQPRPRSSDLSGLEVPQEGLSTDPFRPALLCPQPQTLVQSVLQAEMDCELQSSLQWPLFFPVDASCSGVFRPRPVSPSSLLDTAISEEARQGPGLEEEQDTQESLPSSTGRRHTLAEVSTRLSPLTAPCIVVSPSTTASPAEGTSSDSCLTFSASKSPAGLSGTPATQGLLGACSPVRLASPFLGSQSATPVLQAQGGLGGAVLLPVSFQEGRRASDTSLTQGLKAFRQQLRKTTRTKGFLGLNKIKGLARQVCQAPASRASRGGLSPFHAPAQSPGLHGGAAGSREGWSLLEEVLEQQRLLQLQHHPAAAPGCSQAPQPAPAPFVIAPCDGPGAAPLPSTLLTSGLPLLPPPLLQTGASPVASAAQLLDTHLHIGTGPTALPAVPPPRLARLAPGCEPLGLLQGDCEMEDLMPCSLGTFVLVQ
T2 sequence (Q9H0K1 whole entry): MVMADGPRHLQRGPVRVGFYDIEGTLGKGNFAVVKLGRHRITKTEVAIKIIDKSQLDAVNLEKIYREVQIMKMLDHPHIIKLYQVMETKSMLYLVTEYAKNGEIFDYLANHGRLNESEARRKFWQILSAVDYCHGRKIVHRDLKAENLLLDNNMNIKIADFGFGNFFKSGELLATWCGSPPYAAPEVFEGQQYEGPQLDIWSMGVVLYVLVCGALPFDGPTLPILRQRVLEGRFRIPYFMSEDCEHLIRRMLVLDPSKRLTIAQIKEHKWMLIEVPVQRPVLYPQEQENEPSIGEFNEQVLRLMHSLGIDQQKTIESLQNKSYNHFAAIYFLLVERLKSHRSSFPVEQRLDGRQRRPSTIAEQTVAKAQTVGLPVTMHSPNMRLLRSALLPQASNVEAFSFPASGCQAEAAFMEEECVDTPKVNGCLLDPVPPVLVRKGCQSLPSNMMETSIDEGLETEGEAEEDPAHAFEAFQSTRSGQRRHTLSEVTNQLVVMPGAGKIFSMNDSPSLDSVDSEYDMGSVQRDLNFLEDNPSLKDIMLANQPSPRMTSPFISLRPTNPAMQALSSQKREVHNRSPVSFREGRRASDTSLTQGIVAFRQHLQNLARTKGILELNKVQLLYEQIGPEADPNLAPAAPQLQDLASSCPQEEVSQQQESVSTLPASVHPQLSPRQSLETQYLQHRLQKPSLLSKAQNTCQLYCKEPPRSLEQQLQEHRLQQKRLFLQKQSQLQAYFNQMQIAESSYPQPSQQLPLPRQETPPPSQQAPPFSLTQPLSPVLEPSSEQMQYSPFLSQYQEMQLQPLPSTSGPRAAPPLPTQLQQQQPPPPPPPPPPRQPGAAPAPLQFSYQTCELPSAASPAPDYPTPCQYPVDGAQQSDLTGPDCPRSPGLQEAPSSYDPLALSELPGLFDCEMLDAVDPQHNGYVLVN
T3 sequence (Q9Y2K2 whole entry): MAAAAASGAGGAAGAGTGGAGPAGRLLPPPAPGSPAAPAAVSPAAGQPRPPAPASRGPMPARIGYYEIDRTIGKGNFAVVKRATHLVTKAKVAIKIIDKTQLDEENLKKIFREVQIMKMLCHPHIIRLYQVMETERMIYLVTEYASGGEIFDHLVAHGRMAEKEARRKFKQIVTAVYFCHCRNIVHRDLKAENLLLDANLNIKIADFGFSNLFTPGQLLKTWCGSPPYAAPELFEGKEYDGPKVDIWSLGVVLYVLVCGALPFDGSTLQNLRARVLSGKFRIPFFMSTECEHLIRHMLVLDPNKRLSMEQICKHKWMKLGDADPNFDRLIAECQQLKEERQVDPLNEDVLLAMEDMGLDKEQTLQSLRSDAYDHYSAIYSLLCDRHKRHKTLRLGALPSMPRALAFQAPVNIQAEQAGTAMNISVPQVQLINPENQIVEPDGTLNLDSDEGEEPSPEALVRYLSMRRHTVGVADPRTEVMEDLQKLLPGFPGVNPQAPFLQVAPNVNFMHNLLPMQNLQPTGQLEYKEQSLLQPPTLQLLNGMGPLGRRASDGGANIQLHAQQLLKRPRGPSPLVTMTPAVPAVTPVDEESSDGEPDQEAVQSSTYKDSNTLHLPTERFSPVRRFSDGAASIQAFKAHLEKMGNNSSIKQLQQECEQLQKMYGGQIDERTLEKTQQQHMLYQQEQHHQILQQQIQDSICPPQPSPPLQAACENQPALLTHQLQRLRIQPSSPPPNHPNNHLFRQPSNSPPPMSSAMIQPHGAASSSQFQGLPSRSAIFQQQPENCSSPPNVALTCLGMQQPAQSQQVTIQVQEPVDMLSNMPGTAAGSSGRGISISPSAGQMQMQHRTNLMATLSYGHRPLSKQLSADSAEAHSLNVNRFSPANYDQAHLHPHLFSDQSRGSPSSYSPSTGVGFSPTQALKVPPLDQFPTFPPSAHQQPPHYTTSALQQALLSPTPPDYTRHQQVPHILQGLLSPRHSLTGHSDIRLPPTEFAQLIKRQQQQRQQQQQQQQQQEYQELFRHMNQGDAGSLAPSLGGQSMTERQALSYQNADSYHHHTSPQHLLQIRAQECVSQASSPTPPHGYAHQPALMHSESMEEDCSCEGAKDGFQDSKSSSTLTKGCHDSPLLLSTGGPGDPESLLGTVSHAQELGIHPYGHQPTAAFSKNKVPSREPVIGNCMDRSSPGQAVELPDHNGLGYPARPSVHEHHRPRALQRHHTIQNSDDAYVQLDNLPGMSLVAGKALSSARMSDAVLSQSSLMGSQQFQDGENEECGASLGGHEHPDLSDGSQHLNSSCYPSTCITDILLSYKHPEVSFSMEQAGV

As for `CCn1cc(-c2cnc3c(c2)ncn3-c2cc(OC)c(C(=O)NCC(F)(F)F)c(OC)c2)cn1` [Cpd 29, 4-[6-(1-ethylpyrazol-4-yl)imidazo[4,5-b]pyridin-3-yl]-2,6-dimethoxy-N-(2,2,2-trifluoroethyl)benzamide], the pIC50 in experiment [1], in experiment [2] and in experiment [3] was 7.00 to 8.00 each time. In experiment [4], this compound had a pEC50 of 6.00 to 7.00. Also, the “IL-10 FCmax median” value in experiment [5] is “++ (>1.5-4.5)”.

On to `COc1cc(-n2cnc3cc(-c4cnn(C5CCN(C)CC5)c4)ccc32)cc(OC)c1C(=O)NCC(F)(F)F` [Cpd 46, 2,6-dimethoxy-4-[5-[1-(1-methyl-4-piperidyl)pyrazol-4-yl]benzimidazol-1-yl]-N-(2,2,2-trifluoroethyl)benzamide], for which the negative logarithm of the IC50 (pIC50) in experiment [1], in experiment [2] and in experiment [3] was 8.00 to 11.00 in each case. The same compound showed a pEC50 in experiment [4] of 7.00 to 10.00. Also, the “IL-10 FCmax median” value in experiment [5] was “++ (>1.5-4.5)”.

With `COc1cc(-n2cnc3cc(-c4cnoc4)ccc32)cc(OC)c1C(=O)NCC(F)(F)F` [Cpd 51, 4-(5-isoxazol-4-ylbenzimidazol-1-yl)-2,6-dimethoxy-N-(2,2,2-trifluoroethyl)benzamide], the pIC50 in experiment [1], in experiment [2] and in experiment [3] was 7.00 to 8.00 each time. In experiment [4], this compound showed a negative logarithm of the EC50 (pEC50) of 6.00 to 7.00. Further, the “IL-10 FCmax median” value in experiment [5] is on record as “++ (>1.5-4.5)”.

For the compound `COc1cc(-n2cnc3cc(-c4cnn(C)c4)ccc32)cc(OC(F)F)c1C(=O)NC1CC1` [Cpd 53, N-cyclopropyl-2-(difluoromethoxy)-6-methoxy-4-[5-(1-methylpyrazol-4-yl)benzimidazol-1-yl]benzamide], the “IL-10 FCmax median” value in experiment [5] was “++ (>1.5-4.5)”.

Regarding `COc1cc(-n2cnc3cc(-c4cnn(C)c4)ccc32)cc(OC)c1C(=O)NC1CC1` [Cpd 86, N-cyclopropyl-2,6-dimethoxy-4-[5-(1-methylpyrazol-4-yl)benzimidazol-1-yl]benzamide], the pIC50 in experiment [1] is 7.00 to 8.00; in experiment [2] it was 8.00 to 11.00; in experiment [3], 8.00 to 11.00. The same compound gave a pEC50 in experiment [4] of 7.00 to 10.00. Also, the “IL-10 FCmax median” value in experiment [5] is “++ (>1.5-4.5)”.

In the case of `COc1cc(-c2cnc3cc(-c4cnn(C)c4)ccn23)cc(C)c1C(=O)NCC(F)(F)F` [Cpd 206, 2-methoxy-6-methyl-4-[7-(1-methylpyrazol-4-yl)imidazo[1,2-a]pyridin-3-yl]-N-(2,2,2-trifluoroethyl)benzamide], the pIC50 in experiment [1], in experiment [2] and in experiment [3] was 7.00 to 8.00 in each case. This compound also had a pEC50 in experiment [4] of 6.00 to 7.00. Further, the “IL-10 FCmax median” value in experiment [5] is reported as “+++ (>4.5)”.

In the case of `COc1cc(-c2cnc3cc(-c4cnn(CC(=O)O)c4)ccn23)cc(OC)c1C(=O)NCC(F)(F)F` [Cpd 228, 2-[4-[3-[3,5-dimethoxy-4-(2,2,2-trifluoroethyl-carbamoyl)phenyl]imidazo[1,2-a]pyridin-7-yl]pyrazol-1-yl]acetic acid], the pIC50 in experiment [1], in experiment [2] and in experiment [3] was 8.00 to 11.00 throughout. Besides, the pEC50 in experiment [4] was less than 5.30. Further, the “IL-10 FCmax median” value in experiment [5] is on record as “++ (>1.5-4.5)”.

Take `CCNC(=O)c1c(OC)cc(-n2cnc3cc(-c4ccc(N5CCOCC5)nc4)ccc32)cc1OC` [compound 3, N-ethyl-2,6-dimethoxy-4-[5-(6-morpholino-3-pyridyl)benzimidazol-1-yl]benzamide]: the pIC50 in experiment [1], in experiment [2] and in experiment [3] was 7.00 to 8.00 each time. The negative logarithm of the EC50 (pEC50) in experiment [4] was 6.00 to 7.00. In experiment [5], the “IL-10 FCmax median” value was “++ (>1.5-4.5)”.

For `CCNC(=O)c1c(OC)cc(-n2cnc3cc(-c4cnn(CCN5CCOCC5)c4)ccc32)cc1OC` [compound 4, N-ethyl-2,6-dimethoxy-4-[5-[1-(2-morpholinoethyl)pyrazol-4-yl]benzimidazol-1-yl]benzamide], the pIC50 in experiment [1], in experiment [2] and in experiment [3] was 7.00 to 8.00 throughout. The pEC50 in experiment [4] was 5.30 to 6.00. For the same compound, the “IL-10 FCmax median” value in experiment [5] is given as “++ (>1.5-4.5)”.

Take `CCNC(=O)c1c(OC)cc(-c2cnn3cc(-c4cnn(CC)c4)cnc23)cc1OC` [compound 9, N-ethyl-4-[6-(1-ethylpyrazol-4-yl)pyrazolo[1,5-a]pyrimidin-3-yl]-2,6-dimethoxy-benzamide]: the negative-log IC50 (pIC50) in experiment [1], in experiment [2] and in experiment [3] was 7.00 to 8.00 throughout. In addition, in experiment [4], the pEC50 was 6.00 to 7.00. Besides, the “IL-10 FCmax median” value in experiment [5] is “++ (>1.5-4.5)”.

For the compound `CCn1cc(-c2ccc3c(c2)ncn3-c2cc(OC)c(C(=O)NCCF)c(OC)c2)cn1` [compound 10, 4-[5-(1-ethylpyrazol-4-yl)benzimidazol-1-yl]-N-(2-fluoroethyl)-2,6-dimethoxy-benzamide], the pIC50 is 7.00 to 8.00 in experiment [1], 8.00 to 11.00 in experiment [2] and 8.00 to 11.00 in experiment [3]. Besides, the pEC50 in experiment [4] was 6.00 to 7.00. In addition, in experiment [5], the “IL-10 FCmax median” value is listed as “++ (>1.5-4.5)”.

For `CCn1cc(-c2ccc3c(c2)ncn3-c2cc(OC)c(C(=O)NCC(F)F)c(OC)c2)cn1` [compound 11, N-(2,2-difluoroethyl)-4-[5-(1-ethylpyrazol-4-yl)benzimidazol-1-yl]-2,6-dimethoxy-benzamide], the figures for the pIC50 in experiment [1], in experiment [2] and in experiment [3] were 7.00 to 8.00, 8.00 to 11.00 and 8.00 to 11.00, respectively. The same compound gave a pEC50 in experiment [4] of 6.00 to 7.00. The “IL-10 FCmax median” value in experiment [5] was “++ (>1.5-4.5)”.

For `CCCNC(=O)c1c(OC)cc(-n2cnc3cc(-c4cnn(CC)c4)ccc32)cc1OC` [compound 22, 4-[5-(1-ethylpyrazol-4-yl)benzimidazol-1-yl]-2,6-dimethoxy-N-propyl-benzamide], in experiment [4], the pEC50 was 6.00 to 7.00. Moreover, in experiment [5], the “IL-10 FCmax median” value was “++ (>1.5-4.5)”.

Turning to `CCOc1cncc(-c2ccn3c(-c4cc(OC)c(C(=O)NCC(F)(F)F)c(OC)c4)cnc3c2)c1` [compound 248, 4-[7-(5-ethoxy-3-pyridyl)imidazo[1,2-a]pyridin-3-yl]-2,6-dimethoxy-N-(2,2,2-trifluoroethyl)benzamide], the negative-log IC50 (pIC50) in experiment [1] was 7.00 to 8.00; in experiment [2], 8.00 to 11.00; in experiment [3] it was 8.00 to 11.00. This compound showed a pEC50 in experiment [4] of 7.00 to 10.00.

As to `COc1cc(-c2cnc3cc(-c4ccc(N5CCOCC5)nc4)ccn23)cc(OC)c1C(=O)NCC(F)(F)F` [compound 251, 2,6-dimethoxy-4-[7-(6-morpholino-3-pyridyl)imidazo[1,2-a]pyridin-3-yl]-N-(2,2,2-trifluoroethyl)benzamide], the pIC50 in experiment [1], in experiment [2] and in experiment [3] was 8.00 to 11.00 each time. In experiment [4], this compound had a pEC50 of 7.00 to 10.00.

The values above are taken from patent US12065443B2, “Compounds and pharmaceutical compositions thereof for the treatment of diseases” (priority 2017, dated 2024).
